# Values joined by “and” are separate entries in the source; they are usually repeats but may differ in a detail not shown here. Identical values can stand only once. Like-named read-outs stand apart in the source and are kept apart here.
# Experiments:
# MERTK (cMER) = MERTK (cMER) (Homo sapiens, UniProt Q12866); assay: SelectScreen kinase assay
# Experimental: (§3) Selectivity profiling assays were performed by the Invitrogen SelectScreen™ Services. […] The concentration of ATP was selected to be equal to the KM, unless indicated otherwise.
# EPHB1 = EPHB1 (Homo sapiens, UniProt P54762); assay: SelectScreen kinase assay
# Experimental: as §3
# IKBKB (IKK beta) = IKBKB (IKK beta) (Homo sapiens, UniProt O14920); assay: SelectScreen kinase assay
# Experimental: as §3
# CDK9/cyclin K = CDK9/cyclin K (Homo sapiens, UniProt P50750); assay: SelectScreen kinase assay; details: for Inhibition at 1 µM (%): CDK9/cyclin K, LanthaScreen Binding
# Experimental: as §3
# WT HL-60 neutrophils = assay: Phagocytosis assay with GFP-expressing E. coli; format: cell-based, human; details: Figure 7e, replicates, listed as WEL028
# Experimental: (§1) HL-60 cells were differentiated to neutrophils as described above. Cells were counted and centrifuged (200g, 5 min), followed by resuspension in growth medium without antibiotics. Cells were incubated with vehicle or inhibitor (from 1000x concentrated stocks in DMSO) for 1 h at 37 °C prior to infection (1×10^6 cells in 900 µL in 12-well plate). Meanwhile, E. coli B834(DE3) constitutively expressing GFP^A206K were grown in LB medium to an OD600 of 0.4–1.0, after which bacteria were centrifuged (2000g, 5 min), washed and resuspended in PBS to appropriate density. Neutrophils were infected by addition of bacteria at multiplicity of infection (MOI) of 30 unless stated otherwise. Cells were then incubated for 1 h at 37 °C unless stated otherwise, after which cells were resuspended and transferred to Eppendorf tubes, washed in FACS buffer (1 mL, 500g, 3 min) and fixed in 1% PFA in PBS (15 min, 4 °C, in the dark). Samples were further processed as described above.
# (§2) Events (generally 20,000 per condition) were gated by forward and side scatter (cells), side scatter area (singlets) and the percentage of GFP-positive cells and GFP mean fluorescence intensity (MFI) were determined based on background fluorescence for non-infected cells. The GREEN-B channel (525/30 filter) was used to detect GFP.
# [1] = system: FES^S700C HL-60 neutrophils; assay: Phagocytosis assay with GFP-expressing E. coli; format: cell-based, human; details: for Phagocytic index / GFP-positive cells (%) / Mean GFP intensity (RFU): listed as WEL028; for GFP-positive cells (%): Sup. Fig. 15a; for Mean GFP intensity (RFU): Sup. Fig. 15b
# Experimental: as §1, §2
# FES (FPS) = FES (FPS) (Homo sapiens, UniProt P07332); assay: SelectScreen kinase assay
# Experimental: as §3
# CASK = biological target: T1, CASK (Homo sapiens, UniProt O14936); assay: SelectScreen kinase assay; details: for Inhibition at 1 µM (%): CASK, LanthaScreen Binding
# T1 sequence (O14936 1-926): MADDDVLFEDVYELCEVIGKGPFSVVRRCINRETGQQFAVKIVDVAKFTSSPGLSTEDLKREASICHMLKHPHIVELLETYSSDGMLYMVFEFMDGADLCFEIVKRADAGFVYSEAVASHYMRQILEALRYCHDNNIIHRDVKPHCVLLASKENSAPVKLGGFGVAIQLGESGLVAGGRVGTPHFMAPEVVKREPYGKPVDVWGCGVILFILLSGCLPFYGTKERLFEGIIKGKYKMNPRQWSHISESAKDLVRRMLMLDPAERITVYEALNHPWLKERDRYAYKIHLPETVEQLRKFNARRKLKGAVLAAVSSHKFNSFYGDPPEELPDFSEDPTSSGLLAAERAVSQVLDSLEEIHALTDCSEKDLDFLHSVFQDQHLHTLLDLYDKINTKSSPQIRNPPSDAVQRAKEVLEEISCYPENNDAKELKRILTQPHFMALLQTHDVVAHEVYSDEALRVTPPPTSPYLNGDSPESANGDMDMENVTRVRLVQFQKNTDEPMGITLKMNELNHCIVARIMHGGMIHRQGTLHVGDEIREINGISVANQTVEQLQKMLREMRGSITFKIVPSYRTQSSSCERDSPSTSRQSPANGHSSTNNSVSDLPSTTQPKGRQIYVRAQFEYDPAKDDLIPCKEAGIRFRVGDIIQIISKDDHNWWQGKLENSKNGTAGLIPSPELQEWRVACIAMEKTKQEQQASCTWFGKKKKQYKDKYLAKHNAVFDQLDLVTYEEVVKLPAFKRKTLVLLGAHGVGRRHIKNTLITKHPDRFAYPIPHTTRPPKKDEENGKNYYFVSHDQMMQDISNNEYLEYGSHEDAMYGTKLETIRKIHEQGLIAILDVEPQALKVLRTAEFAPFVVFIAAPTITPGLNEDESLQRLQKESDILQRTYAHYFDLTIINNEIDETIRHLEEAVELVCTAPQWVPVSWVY
# Experimental: as §3
# MAPK9 (JNK2) = MAPK9 (JNK2) (Homo sapiens, UniProt P45984); assay: SelectScreen kinase assay
# Experimental: as §3
# NEK4 = NEK4 (Homo sapiens, UniProt P51957); assay: SelectScreen kinase assay
# Experimental: as §3
# IRAK1 = IRAK1 (Homo sapiens, UniProt P51617); assay: SelectScreen kinase assay
# Experimental: as §3
# RPS6KB2 (p70S6Kb) = RPS6KB2 (p70S6Kb) (Homo sapiens, UniProt Q9UBS0); assay: SelectScreen kinase assay
# Experimental: as §3
# [2] = 1 h, 1 μM WEL028, 1 h preincubation
# MAPK9 (JNK2), sequence (P45984 whole entry): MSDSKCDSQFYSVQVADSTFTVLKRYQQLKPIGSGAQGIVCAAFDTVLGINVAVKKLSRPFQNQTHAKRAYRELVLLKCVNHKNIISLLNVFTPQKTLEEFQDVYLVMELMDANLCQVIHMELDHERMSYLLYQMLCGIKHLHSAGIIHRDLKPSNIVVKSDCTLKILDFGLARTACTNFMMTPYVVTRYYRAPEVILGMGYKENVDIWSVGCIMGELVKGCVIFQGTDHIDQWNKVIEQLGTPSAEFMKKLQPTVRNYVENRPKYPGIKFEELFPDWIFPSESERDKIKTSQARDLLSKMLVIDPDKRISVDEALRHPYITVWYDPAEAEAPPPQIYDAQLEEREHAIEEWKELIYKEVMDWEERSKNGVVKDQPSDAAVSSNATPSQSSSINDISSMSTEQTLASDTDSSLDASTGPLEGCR
# RPS6KB2 (p70S6Kb), sequence (Q9UBS0 whole entry): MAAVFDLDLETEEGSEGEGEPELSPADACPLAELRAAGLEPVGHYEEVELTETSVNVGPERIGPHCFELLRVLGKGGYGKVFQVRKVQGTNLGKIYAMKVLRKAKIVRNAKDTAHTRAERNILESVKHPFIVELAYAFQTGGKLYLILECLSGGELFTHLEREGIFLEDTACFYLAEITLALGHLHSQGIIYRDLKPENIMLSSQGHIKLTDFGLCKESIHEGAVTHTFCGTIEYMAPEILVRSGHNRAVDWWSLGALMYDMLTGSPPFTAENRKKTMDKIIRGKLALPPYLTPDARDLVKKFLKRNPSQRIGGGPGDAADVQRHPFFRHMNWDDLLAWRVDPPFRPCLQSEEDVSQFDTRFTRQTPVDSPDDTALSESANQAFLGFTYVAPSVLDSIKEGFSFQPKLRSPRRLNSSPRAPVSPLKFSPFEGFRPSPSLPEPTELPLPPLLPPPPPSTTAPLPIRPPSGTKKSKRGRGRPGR
# FES (FPS), sequence (P07332 whole entry): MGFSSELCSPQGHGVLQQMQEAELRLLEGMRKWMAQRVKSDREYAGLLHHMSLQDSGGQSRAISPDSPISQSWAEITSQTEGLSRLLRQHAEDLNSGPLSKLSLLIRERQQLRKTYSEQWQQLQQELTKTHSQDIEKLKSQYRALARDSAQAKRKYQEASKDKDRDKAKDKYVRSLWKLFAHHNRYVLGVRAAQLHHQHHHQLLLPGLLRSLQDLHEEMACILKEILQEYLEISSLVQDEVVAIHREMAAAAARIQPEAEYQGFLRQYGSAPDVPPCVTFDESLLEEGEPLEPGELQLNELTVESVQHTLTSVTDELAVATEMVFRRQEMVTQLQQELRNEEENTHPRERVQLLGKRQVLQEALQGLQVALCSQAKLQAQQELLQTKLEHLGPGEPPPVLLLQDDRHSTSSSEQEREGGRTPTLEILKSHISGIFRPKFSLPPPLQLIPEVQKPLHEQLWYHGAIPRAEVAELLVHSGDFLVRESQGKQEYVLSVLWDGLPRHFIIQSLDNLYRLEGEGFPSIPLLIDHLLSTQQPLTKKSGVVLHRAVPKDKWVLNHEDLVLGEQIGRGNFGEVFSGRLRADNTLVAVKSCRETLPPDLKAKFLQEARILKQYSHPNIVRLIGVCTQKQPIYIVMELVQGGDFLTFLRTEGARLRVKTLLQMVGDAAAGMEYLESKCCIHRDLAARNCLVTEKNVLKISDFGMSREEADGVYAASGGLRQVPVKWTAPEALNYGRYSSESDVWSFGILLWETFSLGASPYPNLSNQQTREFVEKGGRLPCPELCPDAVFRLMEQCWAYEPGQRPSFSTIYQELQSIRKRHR
# EPHB1, sequence (P54762 18-984): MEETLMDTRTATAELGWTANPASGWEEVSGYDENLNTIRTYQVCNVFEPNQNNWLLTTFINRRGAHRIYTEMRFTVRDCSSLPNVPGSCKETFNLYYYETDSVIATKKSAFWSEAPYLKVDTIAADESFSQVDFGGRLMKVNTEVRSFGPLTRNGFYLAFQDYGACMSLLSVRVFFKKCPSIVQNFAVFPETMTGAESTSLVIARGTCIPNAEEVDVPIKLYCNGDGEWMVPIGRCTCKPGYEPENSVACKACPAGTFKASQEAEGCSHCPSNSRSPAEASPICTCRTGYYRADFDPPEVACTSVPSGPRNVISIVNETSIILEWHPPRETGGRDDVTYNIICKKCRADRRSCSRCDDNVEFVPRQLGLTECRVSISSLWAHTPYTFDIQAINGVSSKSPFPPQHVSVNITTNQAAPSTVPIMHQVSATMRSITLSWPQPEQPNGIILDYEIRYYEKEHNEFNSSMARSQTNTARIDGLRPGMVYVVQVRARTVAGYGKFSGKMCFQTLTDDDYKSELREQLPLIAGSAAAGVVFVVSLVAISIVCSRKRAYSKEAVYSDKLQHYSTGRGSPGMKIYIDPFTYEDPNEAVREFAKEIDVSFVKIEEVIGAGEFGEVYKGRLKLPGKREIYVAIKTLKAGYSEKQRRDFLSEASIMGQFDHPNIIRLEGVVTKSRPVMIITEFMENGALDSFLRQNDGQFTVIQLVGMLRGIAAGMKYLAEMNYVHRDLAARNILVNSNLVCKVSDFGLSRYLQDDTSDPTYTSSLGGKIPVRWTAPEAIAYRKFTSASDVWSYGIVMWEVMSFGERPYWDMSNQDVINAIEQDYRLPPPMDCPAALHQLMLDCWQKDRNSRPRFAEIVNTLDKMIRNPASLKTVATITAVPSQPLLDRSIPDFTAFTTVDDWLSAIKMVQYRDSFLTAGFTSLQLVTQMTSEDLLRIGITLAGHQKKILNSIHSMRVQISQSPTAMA
# MERTK (cMER), sequence (Q12866 21-999): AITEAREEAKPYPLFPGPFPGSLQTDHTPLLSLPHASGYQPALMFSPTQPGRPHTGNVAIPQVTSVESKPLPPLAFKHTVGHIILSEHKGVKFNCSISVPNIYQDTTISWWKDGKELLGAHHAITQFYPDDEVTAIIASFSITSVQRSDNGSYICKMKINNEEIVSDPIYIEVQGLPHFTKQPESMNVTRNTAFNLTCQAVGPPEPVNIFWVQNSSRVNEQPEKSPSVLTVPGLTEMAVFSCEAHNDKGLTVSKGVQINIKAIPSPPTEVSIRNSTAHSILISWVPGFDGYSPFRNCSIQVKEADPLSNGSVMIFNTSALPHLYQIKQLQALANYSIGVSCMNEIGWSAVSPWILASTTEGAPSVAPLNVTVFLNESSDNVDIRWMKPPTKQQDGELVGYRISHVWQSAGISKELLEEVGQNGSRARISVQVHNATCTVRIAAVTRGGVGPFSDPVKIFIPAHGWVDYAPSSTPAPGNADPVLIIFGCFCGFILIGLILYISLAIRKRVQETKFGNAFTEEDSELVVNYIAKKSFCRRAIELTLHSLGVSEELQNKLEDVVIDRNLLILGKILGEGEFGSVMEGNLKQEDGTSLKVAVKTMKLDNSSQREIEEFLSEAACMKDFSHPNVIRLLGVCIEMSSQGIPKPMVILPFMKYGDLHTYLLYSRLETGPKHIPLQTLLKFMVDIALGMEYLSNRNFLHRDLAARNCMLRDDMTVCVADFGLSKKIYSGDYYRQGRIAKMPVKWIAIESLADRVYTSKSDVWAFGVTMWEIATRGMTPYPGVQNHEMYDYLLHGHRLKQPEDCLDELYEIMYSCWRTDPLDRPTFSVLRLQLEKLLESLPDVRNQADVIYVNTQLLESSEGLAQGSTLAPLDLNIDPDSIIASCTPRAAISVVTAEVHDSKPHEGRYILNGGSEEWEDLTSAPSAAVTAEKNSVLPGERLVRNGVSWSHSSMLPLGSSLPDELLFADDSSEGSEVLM
# NEK4, sequence (P51957 whole entry): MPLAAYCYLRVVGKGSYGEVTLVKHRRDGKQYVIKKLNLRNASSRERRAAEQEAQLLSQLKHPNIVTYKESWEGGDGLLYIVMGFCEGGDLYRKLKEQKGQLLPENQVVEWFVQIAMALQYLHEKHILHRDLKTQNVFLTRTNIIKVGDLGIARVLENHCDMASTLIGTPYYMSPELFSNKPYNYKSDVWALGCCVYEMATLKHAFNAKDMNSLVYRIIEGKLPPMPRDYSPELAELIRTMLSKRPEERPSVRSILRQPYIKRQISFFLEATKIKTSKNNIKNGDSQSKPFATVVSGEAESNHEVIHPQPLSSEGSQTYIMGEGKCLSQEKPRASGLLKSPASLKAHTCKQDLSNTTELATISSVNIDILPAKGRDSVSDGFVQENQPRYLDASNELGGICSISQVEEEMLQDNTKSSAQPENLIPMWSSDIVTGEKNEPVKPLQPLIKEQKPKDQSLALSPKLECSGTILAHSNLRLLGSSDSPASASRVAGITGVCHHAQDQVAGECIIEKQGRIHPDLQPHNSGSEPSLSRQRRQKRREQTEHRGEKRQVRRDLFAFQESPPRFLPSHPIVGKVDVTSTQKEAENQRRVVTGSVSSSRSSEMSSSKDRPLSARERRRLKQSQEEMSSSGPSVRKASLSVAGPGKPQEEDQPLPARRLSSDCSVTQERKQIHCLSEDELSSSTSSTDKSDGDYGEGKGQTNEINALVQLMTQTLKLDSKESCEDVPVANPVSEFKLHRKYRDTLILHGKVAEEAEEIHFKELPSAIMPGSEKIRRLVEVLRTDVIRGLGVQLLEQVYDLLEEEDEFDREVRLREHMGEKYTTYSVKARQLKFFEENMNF
smiles,measurement,setting,value
C#CCOc1ccc(Nc2ncc(Cl)c(Nc3ccccc3NC(=O)C=C)n2)c(OC)c1 [Compound 6],inhibition at 1 µM,MERTK (cMER); [2],4%
same,Inhibition at 1 µM (%),"MERTK (cMER); MERTK (cMER), 1 µM, ZLYTE, ATP Km app, listed as WEL028, 1 µM",0% and 9%
same,inhibition at 1 µM,EPHB1; [2],0%
same,Inhibition at 1 µM (%),"EPHB1; EPHB1, 1 µM, ZLYTE, ATP Km app, listed as WEL028, 1 µM",-1% and 1%
same,inhibition at 1 µM,IKBKB (IKK beta); 1 h,1%
same,inhibition at 1 µM,IKBKB (IKK beta); read-out: Inhibition at 1 µM (%),1%
same,inhibition at 1 µM,CDK9/cyclin K; [2],5%
same,Inhibition at 1 µM (%),CDK9/cyclin K,2%
same,Inhibition at 1 µM (%),"CDK9/cyclin K; listed as WEL028, 1 µM",7%
same,Phagocytic index,WT HL-60 neutrophils,160.957 and 207.068 and 250.511 and 251.311 and 284.865
same,Reduction of phagocytic index,"[1]; 100 nM, 1 h, E. coli MOI 30, 1 h",30–50%
same,Phagocytic index,"[1]; Figure 7e, S700C, replicates",145.478 and 171.315 and 187.921 and 222.417 and 183.286
same,Phagocytic index,"[1]; Figure 7i, replicates",197.442 and 178.118 and 223.309 and 208.369 and 195.015
same,Phagocytic index,"[1]; MOI 0, Sup. Fig. 15d",11.3713 and 7.7474 and 12.7423
same,Phagocytic index,"[1]; MOI 5, Sup. Fig. 15d",256.754 and 179.658 and 258.748
same,Phagocytic index,"[1]; MOI 10, Sup. Fig. 15d",353.426 and 268.67 and 311.603
same,Phagocytic index,"[1]; MOI 30, Sup. Fig. 15d",419.958 and 366.26 and 418.025
same,Phagocytic index,"[1]; MOI 50, Sup. Fig. 15d",485.281 and 414.473 and 534.485
same,GFP-positive cells (%),[1]; infection time 0 min,18.616% and 19.116% and 23.8538%
same,Mean GFP intensity (RFU),[1]; infection time 0 min,251.299 RFU and 272.27 RFU and 265.594 RFU
same,Phagocytic index,"[1]; infection time 0 min, Sup. Fig. 15c",46.7819 and 52.047 and 63.3542
same,GFP-positive cells (%),[1]; infection time 15 min,35.6181% and 40.0295% and 44.0403%
same,Mean GFP intensity (RFU),[1]; infection time 15 min,355.136 RFU and 341.544 RFU and 336.989 RFU
same,Phagocytic index,"[1]; infection time 15 min, Sup. Fig. 15c",126.493 and 136.719 and 148.411
same,GFP-positive cells (%),[1]; infection time 30 min,53.551% and 63.4482% and 62.11%
same,Mean GFP intensity (RFU),[1]; infection time 30 min,496.403 RFU and 400.363 RFU and 431.37 RFU
same,Phagocytic index,"[1]; infection time 30 min, Sup. Fig. 15c",265.829 and 254.023 and 267.924
same,GFP-positive cells (%),[1]; infection time 60 min,64.7116% and 74.5174% and 69.3761%
same,Mean GFP intensity (RFU),[1]; infection time 60 min,571.855 RFU and 482.086 RFU and 578.862 RFU
same,Phagocytic index,"[1]; infection time 60 min, Sup. Fig. 15c",370.057 and 359.238 and 401.592
same,inhibition at 1 µM,FES (FPS); [2],15%
same,Inhibition at 1 µM (%),"FES (FPS); FES (FPS), 1 µM, ZLYTE, ATP Km app, listed as WEL028, 1 µM",17%
same,inhibition at 1 µM,"FES (FPS); read-out: Inhibition at 1 µM (%), FES (FPS), 1 µM, ZLYTE, ATP Km app",12%
same,inhibition at 1 µM,CASK; [2],-7%
same,Inhibition at 1 µM (%),CASK,-11%
same,Inhibition at 1 µM (%),"CASK; listed as WEL028, 1 µM",-4%
same,Inhibition (%),"MAPK9 (JNK2); 1 μM WEL028, 1 h preincubation",2%
same,Inhibition at 1 µM (%),"MAPK9 (JNK2); MAPK9 (JNK2), 1 µM, ZLYTE, ATP 100, listed as WEL028, 1 µM",-1% and 5%
same,inhibition at 1 µM,NEK4; [2],4%
same,Inhibition at 1 µM (%),"NEK4; NEK4, 1 µM, ZLYTE, ATP Km app, listed as WEL028, 1 µM",5%
same,inhibition at 1 µM,"NEK4; read-out: Inhibition at 1 µM (%), NEK4, 1 µM, ZLYTE, ATP Km app",4%
same,inhibition at 1 µM,IRAK1; [2],26%
same,Inhibition at 1 µM (%),"IRAK1; IRAK1, 1 µM, Adapta, ATP Km app, listed as WEL028, 1 µM",31%
same,inhibition at 1 µM,"IRAK1; read-out: Inhibition at 1 µM (%), IRAK1, 1 µM, Adapta, ATP Km app",20%
same,Inhibition at 1 µM (%),"RPS6KB2 (p70S6Kb); 1 µM, ZLYTE, ATP Km app, listed as WEL028, 1 µM",1% and 4%
same,inhibition at 1 µM,RPS6KB2 (p70S6Kb); [2],3%

# Source: paper PMC7316778 (Nature Communications, 2020)
